Measured values taken from the supplement of paper PMC10307832.

Legend:
Assay in all cases: relative viability (nuclei count vs DMSO), 5 days (fraction); higher = more cells survive
[1] = compound: C1=CC2=C(C=C(C(=C2N=C1)O)N=NC3=CC4=C(C=C3)C=C(C=C4)S(=O)(=O)O)S(=O)(=O)O + CC(=O)c1c(C)c2cnc(Nc3ccc(N4CCNCC4)cn3)nc2n(C2CCCC2)c1=O [Palbociclib] (partner 0.5 µM)
In short: (§1)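 After 5 days of treatment, lung cancer cells in 1536-well plates were fixed and stained in a single step (final 0.05% Triton X-100, 1% formaldehyde, 1 ug/ml Hoechst) and their nuclei counted on 4× images. Treatment had been applied by pin tool the day after seeding as one drug alone or as a fixed anchor-drug dose with five library-drug doses (not always all listed) in √10 steps. Relative viability is the nuclei count of treated wells divided by that of vehicle wells, and values are medians of duplicate plates.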

AT-7519 + Palbociclib = compound: O=C(NC1CCNCC1)c1n[nH]cc1NC(=O)c1c(Cl)cccc1Cl [AT-7519] + CC(=O)c1c(C)c2cnc(Nc3ccc(N4CCNCC4)cn3)nc2n(C2CCCC2)c1=O [Palbociclib] (partner 0.5 µM)
In short: as §1

AT-7519 + Pictilisib = compound: O=C(NC1CCNCC1)c1n[nH]cc1NC(=O)c1c(Cl)cccc1Cl [AT-7519] + CS(=O)(=O)N1CCN(Cc2cc3nc(-c4cccc5[nH]ncc45)nc(N4CCOCC4)c3s2)CC1 [Pictilisib] (partner 1 µM)
In short: as §1

AT-7519 + Olaparib = compound: O=C(NC1CCNCC1)c1n[nH]cc1NC(=O)c1c(Cl)cccc1Cl [AT-7519] + O=C(c1cc(Cc2n[nH]c(=O)c3ccccc23)ccc1F)N1CCN(C(=O)C2CC2)CC1 [Olaparib] (partner 8 µM)
In short: as §1

Row | Cell Line | relative viability ([1]; first compound 0.08 µM) | relative viability ([1]; first compound 0.253 µM) | relative viability ([1]; first compound 0.8 µM) | relative viability ([1]; first compound 2.53 µM) | relative viability ([1]; first compound 8 µM) | relative viability (AT-7519 + Palbociclib; first compound 0.01 µM) | relative viability (AT-7519 + Palbociclib; first compound 0.03162 µM) | relative viability (AT-7519 + Palbociclib; first compound 0.3162 µM) | relative viability (AT-7519 + Palbociclib; first compound 1 µM) | relative viability (AT-7519 + Pictilisib; first compound 0.01 µM) | relative viability (AT-7519 + Pictilisib; first compound 0.03162 µM) | relative viability (AT-7519 + Pictilisib; first compound 0.3162 µM) | relative viability (AT-7519 + Pictilisib; first compound 1 µM) | relative viability (AT-7519 + Olaparib; first compound 0.01 µM) | relative viability (AT-7519 + Olaparib; first compound 0.03162 µM) | relative viability (AT-7519 + Olaparib; first compound 0.3162 µM) | relative viability (AT-7519 + Olaparib; first compound 1 µM)
1 | NCI-H441 | 0.22 | 0.206 | 0.21 | 0.209 | 0.216 | 0.202 | 0.195 | 0.141 | 0.163 | 0.448 | 0.452 | 0.468 | 0.161 | 0.524 | 0.559 | 0.446 | 0.204
2 | NCI-H460 | 0.174 | 0.081 | 0.183 | 0.279 | 0.229 | 0.137 | 0.142 | 0.0995 | 0.019 | 0.346 | 0.446 | 0.37 | 0.286 | 0.367 | 0.456 | 0.315 | 0.18
3 | NCI-H520 | 0.247 | 0.247 | 0.27 | 0.237 | 0.212 | 0.226 | 0.197 | 0.209 | 0.194 | 0.344 | 0.296 | 0.249 | 0.171 | 0.341 | 0.315 | 0.287 | 0.201
4 | NCI-H647 | 0.413 | 0.404 | 0.386 | 0.387 | 0.37 | 0.442 | 0.369 | 0.413 | 0.19 | 0.452 | 0.531 | 0.483 | 0.356 | 0.355 | 0.55 | 0.482 | 0.189
5 | NCI-H650 | 0.35 | 0.357 | 0.335 | 0.317 | 0.335 | 0.329 | 0.335 | 0.296 | 0.452 | 0.868 | 0.851 | 0.84 | 0.672 | 0.413 | 0.384 | 0.439 | 0.349
6 | NCI-H661 | 0.4 | 0.407 | 0.44 | 0.443 | 0.421 | 0.382 | 0.432 | 0.4 | 0.256 | 0.398 | 0.386 | 0.399 | 0.289 | 0.775 | 0.834 | 0.762 | 0.251
7 | NCI-H727 | 0.674 | 0.652 | 0.659 | 0.634 | 0.694 | 0.621 | 0.698 | 0.658 | 0.427 | 0.354 | 0.263 | 0.197 | 0.204 | 0.711 | 0.772 | 0.7 | 0.365
8 | NCI-H838 | 0.254 | 0.216 | 0.227 | 0.249 | 0.26 | 0.233 | 0.21 | 0.194 | 0.1 | 0.567 | 0.427 | 0.145 | 0.103 | 0.812 | 0.766 | 0.576 | 0.0987
9 | NCI-H1355 | 0.401 | 0.372 | 0.368 | 0.395 | 0.429 | 0.348 | 0.389 | 0.359 | 0.589 | 0.462 | 0.388 | 0.475 | 0.35 | 0.687 | 0.765 | 0.789 | 0.68
10 | NCI-H1395 | 0.692 | 0.614 | 0.616 | 0.572 | 0.628 | 0.561 | 0.699 | 0.573 | 0.504 | 0.662 | 0.523 | 0.51 | 0.471 | 0.374 | 0.471 | 0.413 | 0.419
11 | NCI-H1437 | 0.356 | 0.321 | 0.308 | 0.3 | 0.352 | 0.282 | 0.319 | 0.295 | 0.251 | 0.471 | 0.392 | 0.29 | 0.133 | 0.644 | 0.643 | 0.574 | 0.279
12 | NCI-H1650 | 0.369 | 0.302 | 0.301 | 0.328 | 0.308 | 0.284 | 0.331 | 0.27 | 0.164 | 0.701 | 0.548 | 0.295 | 0.177 | 0.899 | 0.776 | 0.75 | 0.193
13 | NCI-H1651 | 0.522 | 0.502 | 0.511 | 0.55 | 0.499 | 0.517 | 0.504 | 0.547 | 0.534 | 0.59 | 0.478 | 0.397 | 0.41 | 0.201 | 0.172 | 0.163 | 0.204
14 | NCI-H1666 | 0.667 | 0.704 | 0.626 | 0.668 | 0.645 | 0.642 | 0.658 | 0.674 | 0.655 | 0.405 | 0.425 | 0.39 | 0.145 | 0.674 | 0.724 | 0.68 | 0.65
15 | NCI-H1734 | 0.367 | 0.323 | 0.344 | 0.375 | 0.329 | 0.288 | 0.319 | 0.353 | 0.167 | 0.552 | 0.452 | 0.439 | 0.252 | 0.535 | 0.585 | 0.537 | 0.263
16 | NCI-H1755 | 0.473 | 0.438 | 0.437 | 0.468 | 0.415 | 0.477 | 0.478 | 0.435 | 0.458 | 0.444 | 0.379 | 0.346 | 0.297 | 0.946 | 0.957 | 0.949 | 0.854
17 | NCI-H1792 | 0.674 | 0.654 | 0.673 | 0.667 | 0.597 |  |  | 0.692 | 0.837 | 0.196 | 0.218 | 0.234 | 0.252 | 0.282 | 0.313 | 0.522 | 0.311
18 | NCI-H1793 | 0.352 | 0.327 | 0.283 | 0.3 | 0.271 | 0.309 | 0.299 | 0.305 | 0.285 | 0.357 | 0.255 | 0.31 | 0.161 | 0.849 | 0.774 | 0.786 | 0.546
19 | NCI-H1915 | 0.415 | 0.523 | 0.488 | 0.545 | 0.494 | 0.592 | 0.509 | 0.608 | 0.39 | 0.987 | 0.943 | 0.755 | 0.417 | 0.25 | 0.273 | 0.292 | 0.208
